Test results published in patent publication US12018021B2 (UCB Biopharma SRL, priority 2018, dated 2024).

Target: IgE-Tb / FcεRIα-Y131A-AF488 (Homo sapiens, UniProt P01854)
Assay: IgE-Tb / FcεRIα-Y131A-AF488 FRET assay (protocol for examples 1 to 233)
Assay type: binding
Details: examples 1 to 233: 5 nM IgE-Tb, 25 nM FcεRIα-Y131A-AF488, incubated 2 hours at room temperature; read-out: Y131A FRET IC50 range
Outline: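 Compounds (top final concentration usually 10 μM, 3-fold, 10 points, 2% DMSO) incubated 2 h at room temperature with IgE-Tb (5 nM) and FcεRIα-Y131A-AF488 (25 nM). Background from 200 nM unlabelled receptor subtracted; FRET ratio 520/495 nm after 330 nm excitation gave percent inhibition, fitted four-parameter for IC50.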

Chain of IgE-Tb / FcεRIα-Y131A-AF488 (P01854 1-427 limits assumed, stated change not applied): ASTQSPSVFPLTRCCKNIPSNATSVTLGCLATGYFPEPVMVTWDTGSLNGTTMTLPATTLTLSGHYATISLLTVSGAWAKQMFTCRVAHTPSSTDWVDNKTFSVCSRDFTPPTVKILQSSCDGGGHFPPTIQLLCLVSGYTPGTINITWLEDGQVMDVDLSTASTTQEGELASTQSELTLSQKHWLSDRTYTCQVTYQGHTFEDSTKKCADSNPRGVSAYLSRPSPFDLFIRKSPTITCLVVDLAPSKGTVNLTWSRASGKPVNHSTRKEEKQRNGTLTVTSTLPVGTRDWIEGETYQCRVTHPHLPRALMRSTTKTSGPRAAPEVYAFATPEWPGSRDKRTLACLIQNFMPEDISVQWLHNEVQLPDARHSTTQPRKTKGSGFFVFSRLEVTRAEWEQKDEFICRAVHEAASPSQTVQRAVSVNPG

Compound	IC50 [nM]
O=C(NCC1CC1)c1c(NC(=O)C2CC2)sc2c1CC(C(=O)O)CC2 (stereo not drawn) [Example 40, 2-(Cyclopropanecarbonylamino)-3-(cyclopropylmethylcarbamoyl)-4,5,6,7-tetrahydrobenzothiophene-5-carboxylic acid]	10000 to 50000
CCNc1c(NC2CCc3sc(NC(=O)C4CC4)c(S(=O)(=O)NCC4CC4)c3C2)c(=O)c1=O (stereo not drawn) [Example 37, N-[3-(Cyclopropylmethylsulfamoyl)-5-[[2-(ethylamino)-3,4-dioxo-cyclobuten-1-yl]amino]-4,5,6,7-tetrahydrobenzothiophen-2-yl]cyclopropanecarboxamide]	< 1000
CS(=N)(=O)NC1CCc2sc(NC(=O)C3CC3)c(C(=O)NCC3CC3)c2C1 (stereo not drawn) [Example 196, 2-(Cyclopropanecarbonylamino)-N-(cyclopropylmethyl)-5-[(methylsulfonimidoyl)amino]-4,5,6,7-tetrahydrobenzothiophene-3-carboxamide]	1000 to 10000
N#CN=C(NC1CCc2sc(NC(=O)C3CC3)c(C(=O)NCC3CC3)c2C1)NN1CCOCC1 (stereo not drawn) [Example 205, 5-[[N′-Cyano-N-morpholino-carbamimidoyl]amino]-2-(cyclopropanecarbonylamino)-N-(cyclopropylmethyl)-4,5,6,7-tetrahydrobenzothiophene-3-carboxamide]	1000 to 10000
O=C(NCC1CC1)c1c(NC(=O)C2CC2)sc2c1C[C@@H](n1ccnc1NCC1CC1)CC2 [Example 133, (5S)-2-(Cyclopropanecarbonylamino)-N-(cyclopropylmethyl)-5-[2-(cyclopropylmethylamino)imidazol-1-yl]-4,5,6,7-tetrahydrobenzothiophene-3-carboxamide]	< 1000
O=C(NCC1CC1)c1c(NC(=O)C2CC2)sc2c1C[C@@H](n1cnnc1Nc1cccnc1)CC2 [Example 124, (5S)-2-(Cyclopropanecarbonylamino)-N-(cyclopropylmethyl)-5-[3-(3-pyridylamino)-1,2,4-triazol-4-yl]-4,5,6,7-tetrahydrobenzothiophene-3-carboxamide]	< 1000
CNC(=O)c1c(NC(=O)C2CC2)sc2c1CCCO2 [Example 2, 6-(Cyclopropanecarbonylamino)-N-methyl-3,4-dihydro-2H-thieno[2,3-b]pyran-5-carboxamide]	10000 to 50000
CCc1c(N[C@@H]2CCc3sc(NC(=O)C4CC4)c(C(=O)NCC4CC4)c3C2)c(=O)c1=O (single isomer, unassigned) [Example 189]	< 1000
CC(C)(C)OC(=O)Nc1cnnn1[C@H]1CCc2sc(NC(=O)C3CC3)c(C(=O)NCC3CC3)c2C1 (stereo in doubt) [Example 140, tert-Butyl N-[3-[2-(cyclopropanecarbonylamino)-3-(cyclopropylmethylcarbamoyl)-4,5,6,7-tetrahydrobenzothiophen-5-yl]triazol-4-yl]carbamate]	< 1000
O=C(NCC1CC1)c1c(NC(=O)C2CC2)sc2c1C[C@@H](n1cnnc1N[C@H]1CCOC1)CC2 [Example 143, (5S)-2-(cyclopropanecarbonylamino)-N-(cyclopropylmethyl)-5-[3-[[(3S)-tetrahydrofuran-3-yl]amino]-1,2,4-triazol-4-yl]-4,5,6,7-tetrahydrobenzothiophene-3-carboxamide]	< 1000
CC(C)NS(=O)(=O)NC1CCc2sc(NC(=O)C3CC3)c(C(=O)NCC3CC3)c2C1 (stereo not drawn) [Example 204, 2-(Cyclopropanecarbonylamino)-N-(cyclopropylmethyl)-5-(isopropylsulfamoylamino)-4,5,6,7-tetrahydrobenzothiophene-3-carboxamide]	1000 to 10000
C[S+]([O-])NC1CCc2sc(NC(=O)C3CC3)c(C(=O)NCC3CC3)c2C1 (mixture of isomers) [Example 199, 2-(Cyclopropanecarbonylamino)-N-(cyclopropylmethyl)-5-(methanesulfinamido)-4,5,6,7-tetrahydrobenzothiophene-3-carboxamide]	1000 to 10000
N#CC1CCc2sc(NC(=O)C3CC3)c(C(=O)NCC3CC3)c2C1 (stereo not drawn) [Example 64, 5-Cyano-2-(cyclopropanecarbonylamino)-N-(cyclopropylmethyl)-4,5,6,7-tetrahydrobenzothiophene-3-carboxamide]	1000 to 10000
CNC(=O)c1c(NC(=O)C2CC2)sc2c1CCSC2 [Example 1, 2-(Cyclopropanecarbonylamino)-N-methyl-5,7-dihydro-4H-thieno[2,3-c]thiopyran-3-carboxamide]	1000 to 10000
Cc1nnc(-c2ncn([C@H]3CCc4sc(NC(=O)C5CC5)c(C(=O)NCC5CC5)c4C3)c2N)o1 [Example 216, (5S)-5-[5-amino-4-(5-methyl-1,3,4-oxadiazol-2-yl)imidazol-1-yl]-2-(cyclopropanecarbonylamino)-N-(cyclopropylmethyl)-4,5,6,7-tetrahydrobenzothiophene-3-carboxamide]	< 1000
CCNc1nccn1[C@H]1CCc2sc(NC(=O)C3CC3)c(C(=O)NCC3CC3)c2C1 [Example 147, (5S)-2-(Cyclopropanecarbonylamino)-N-(cyclopropylmethyl)-5-[2-(ethylamino)imidazol-1-yl]-4,5,6,7-tetrahydrobenzothiophene-3-carboxamide]	< 1000
O=C(NCC1CC1)c1c(NC(=O)C2CC2)sc2c1CC(C(=O)Nc1ccc3nccnc3c1)CC2 (stereo not drawn) [Example 49, 2-(Cyclopropanecarbonylamino)-N3-(cyclopropylmethyl)-N5-quinoxalin-6-yl-4,5,6,7-tetrahydrobenzothiophene-3,5-dicarboxamide]	< 1000
CCc1cc(Nc2nncn2[C@H]2CCc3sc(NC(=O)C4CC4)c(C(=O)NCC4CC4)c3C2)n(C)n1 [Example 228, (5S)-2-(cyclopropanecarbonylamino)-N-(cyclopropylmethyl)-5-[3-[(5-ethyl-2-methyl-pyrazol-3-yl)amino]-1,2,4-triazol-4-yl]-4,5,6,7-tetrahydrobenzothiophene-3-carboxamide]	< 1000
Cc1cc(Nc2nncn2C2CCc3sc(NC(=O)C4CC4)c(C(=O)NCC(C)(C)F)c3C2)n(C)n1 (stereo not drawn) [Example 200, 2-(cyclopropanecarbonylamino)-5-[3-[(2,5-dimethylpyrazol-3-yl)amino]-1,2,4-triazol-4-yl]-N-(2-fluoro-2-methyl-propyl)-4,5,6,7-tetrahydrobenzothiophene-3-carboxamide]	< 1000
CC(C)(C)CNc1nncn1C1CCc2sc(NC(=O)C3CC3)c(C(=O)NCC3CC3)c2C1 (stereo in doubt) [Example 105, (5S)-2-(Cyclopropanecarbonylamino)-N-(cyclopropylmethyl)-5-[3-(2,2-dimethylpropylamino)-1,2,4-triazol-4-yl]-4,5,6,7-tetrahydrobenzothiophene-3-carboxamide]	< 1000
Cc1cc(Nc2nncn2[C@H]2CCc3sc(NC(=O)C4CC4)c(S(=O)(=O)NCC4CC4)c3C2)n(C)n1 [Example 215, N-[(5S)-3-(cyclopropylmethylsulfamoyl)-5-[3-[(2,5-dimethylpyrazol-3-yl)amino]-1,2,4-triazol-4-yl]-4,5,6,7-tetrahydrobenzothiophen-2-yl]cyclopropanecarboxamide]	< 1000
CNC(=O)c1c(NC(=O)C2CC2)sc2c1CCCC2O (stereo not drawn) [Example 79, 2-(Cyclopropanecarbonylamino)-7-hydroxy-N-methyl-4,5,6,7-tetrahydrobenzothiophene-3-carboxamide]	10000 to 50000
O=C1NCc2cc(NC(=O)C3CCc4sc(NC(=O)C5CC5)c(C(=O)NCC5CC5)c4C3)ccc21 (stereo not drawn) [Example 41, 2-(Cyclopropanecarbonylamino)-N3-(cyclopropylmethyl)-N5-(1-oxoisoindolin-5-yl)-4,5,6,7-tetrahydrobenzothiophene-3,5-dicarboxamide]	< 1000
Cc1cc(=O)[nH]c(NC2CCc3sc(NC(=O)C4CC4)c(C(=O)NCC4CC4)c3C2)n1 (stereo not drawn) [Example 152, 2-(Cyclopropanecarbonylamino)-N-(cyclopropylmethyl)-5-[(4-methyl-6-oxo-1H-pyrimidin-2-yl)amino]-4,5,6,7-tetrahydrobenzothiophene-3-carboxamide]	< 1000
CC(=NC#N)NC1CCc2sc(NC(=O)C3CC3)c(C(=O)NCC3CC3)c2C1 (stereo not drawn) [Example 197, 5-[[N-Cyano-C-methyl-carbonimidoyl]amino]-2-(cyclopropanecarbonylamino)-N-(cyclopropylmethyl)-4,5,6,7-tetrahydrobenzothiophene-3-carboxamide]	< 1000
O=C(NCC1CC1)c1c(NC(=O)C2CC2)sc2c1CC(c1cc[nH]n1)CC2 (stereo not drawn) [Example 100, 2-(Cyclopropanecarbonylamino)-N-(cyclopropylmethyl)-5-(1H-pyrazol-3-yl)-4,5,6,7-tetrahydrobenzothiophene-3-carboxamide]	< 1000
O=C(NCC1CC1)c1c(NC(=O)C2CC2)sc2c1CC(C=NO)CC2 (stereo not drawn) [Example 58, 2-(cyclopropanecarbonylamino)-N-(cyclopropylmethyl)-5-(hydroxyiminomethyl)-4,5,6,7-tetrahydrobenzothiophene-3-carboxamide]	1000 to 10000
CCNC(=O)C1CCCc2c1sc(NC(=O)C1CC1)c2S(=O)(=O)NCC(C)C (stereo not drawn) [Example 27, 2-(Cyclopropanecarbonylamino)-N-ethyl-3-(isobutylsulfamoyl)-4,5,6,7-tetrahydrobenzothiophene-7-carboxamide]	1000 to 10000
O=C1NC(=O)C2(CCc3sc(NC(=O)C4CC4)c(C(=O)NCC4CC4)c3C2)N1 (stereo not drawn) [Example 92, 2-(Cyclopropanecarbonylamino)-N-(cyclopropylmethyl)-2′,5′-dioxo-spiro[6,7-dihydro-4H-benzothiophene-5,4′-imidazolidine]-3-carboxamide]	1000 to 10000
CCCNS(=O)(=O)c1c(NC(=O)C2CC2)sc2c1CC(NC(=S)Nc1ccc(OC)cc1)CC2 (stereo not drawn) [Example 25, N-[5-[(4-Methoxyphenyl)carbamothioylamino]-3-(propylsulfamoyl)-4,5,6,7-tetrahydrobenzothiophen-2-yl]cyclopropanecarboxamide]	< 1000
